We go through six compounds from US20060024699A1, “Method for evaluating a substance capable of effecting on endoplasmic reticulum stress-and/or amyloid beta-induced apoptosis” (priority 2004, published 2006).

Holding throughout (format): cell-based, human
The subject of assay [1] is pro-caspase-4. Put plainly: Cleavage of pro-caspase-4 in SK-N-SH cells treated with apoptosis inducers (Western blotting). The note with it: tunicamycin 1 μg/ml, thapsigargin 0.5 μM, etoposide 100 μM for 16 or 24 hours, staurosporine 0.1 μM for 8 hours. On the procedure:
SK-N-SH cells were treated with various kinds of apoptosis inducers such as tunicamycin (manufactured by SIGMA), thapsigargin (manufactured by SIGMA), etoposide (manufactured by SIGMA), staurosporine (manufactured by SIGMA), UV and the like, to evaluate change in caspase-4. Specifically, SK-N-SH cells were treated either with exposure to an endoplasmic reticulum stress inducer, tunicamycin (1 μg/ml) or thapsigargin (0.5 μM), exposure to a non-endoplasmic reticulum stress inducer, etoposide (100 μM) or staurosporine (0.1 μM), or irradiated with 150 J/m2 UV, in α-MEM (manufactured by Invitrogen) containing 10% by weight of fetal bovine serum, at 37° C. under 5% by volume of CO2. Here, the exposures to tunicamycin, thapsigargin and etoposide were 16 or 24 hours, exposure to staurosporine was 8 hours, and UV irradiation was 8 hours.
(§1) Thereafter, the cells obtained were washed with phosphate buffered saline, and then harvested. The resulting cells were lysed in TNE buffer (composition: 10 mM Tris-HCl, pH 7.8, 1 mM EDTA, 150 mM NaCl, 1 mM phenylmethylsulphonyl fluoride) containing 0.5% by weight of NP-40 (trade name: Nonidet P-40), to give a cell extract. Equal amount of a cell extract (corresponding to 15 μg of protein) was subjected to 12% by weight SDS-PAGE. After the SDS-PAGE, proteins on the gel were transferred to a PVDF membrane (manufactured by Millipore). The membrane was blocked with 5% by weight of bovine serum albumin (BSA). The resulting membrane was incubated with a primary antibody (anti-caspase-4 antibody, anti-caspase-3 antibody, anti-caspase-7 antibody or anti-β-actin antibody), and thereafter incubated with a horseradish peroxidase (HRP)-conjugated secondary antibody. Thereafter, caspase-4, caspase-3, caspase-7 or β-actin was detected with trade name: ECL detection system (manufactured by Amersham-Pharmacia).
On the technique in general: A western blot detects proteins with antibodies after separation by electrophoresis.

Assay [2] deals with SK-N-SH cells. The experiment in a line: Thapsigargin-induced cell death assessed by morphological changes in SK-N-SH cells. The note with it: untransfected SK-N-SH cells; 0.5 μM thapsigargin for 40 hours. The method, then: In the same manner as described above, cellular morphological changes of SK-N-SH cells treated with various apoptosis inducers were evaluated by phase contrast microscopy. SK-N-SH cells treated in the same manner were stained with 10 μM Hoechst 33342. Nuclear morphological changes of stained cells were evaluated by fluorescence microscopy. Cell death was detected by using as an index cellular morphological changes and nuclear morphological changes. At least 500 cells were counted. The data was expressed as the mean ±SEM from three independent experiments and P values were calculated by Student's t-test.
SK-N-SH cell was transfected at 50% of confluence with 1.0 μg of the siRNA in 24-well plastic plates (manufactured by Nunc) containing αMEM (manufactured by Invitrogen) containing 10% by weight of fetal bovine serum, at 37° C. under 5% by volume of CO2, using trade name: Oligofectamine (manufactured by Invitrogen) according to the manufacturer's protocol. Transfected SK-N-SH cells were incubated at 37° C. for 60 hours without changing the medium.
In addition, SK-N-SH cells after the culturing were incubated in αMEM (manufactured by Invitrogen) containing 10% by weight of fetal bovine serum at 37° C. under 5% by volume of CO2, with or without 0.5 μM thapsigargin for 40 hours. […] Caspase-4 or β-actin was then detected with an ECL detection system (manufactured by Amersham-Pharmacia). […]

The test system of assay [3] is caspase-4. Put plainly: Cleavage of caspase-4 in SK-N-SH cells treated with amyloid-β peptides (Western blotting). The following applies: 25 μM Aβ25-35, 5 μM Aβ1-40, 25 μM Aβ35-25, 5 M Aβ40-1. The method, then:
as §1, with “Amersham-Pharmacia). […]” for “Amersham-Pharmacia).”
SK-N-SH cells were incubated in α-MEM (manufactured by Invitrogen) containing 10% by weight of fetal bovine serum, at 37° C. under 5% by volume of CO2, with 25 μM Aβ25-35, 5 μM Aβ1-40, 25 μM Aβ35-25, or 5 M Aβ40-1. Caspase-4, caspase-7 or β-actin in the cell extract was then detected in the same manner as described above.

Assay [4] concerns HeLa cell. The experiment in a line: Nuclear morphological changes (Hoechst33342) after tunicamycin in vector-transfected HeLa cells. The following applies: tunicamycin 1 μg/ml for 30 hours. The method, then:
(§2) SK-N-SH cells were stably transfected with pCAGGS-hBcl-2 (Iwahashi, H. et al., Nature, 390, 413-417 (1997), all teachings of which are incorporated herein by reference) by a conventional method. The resulting cells were then cultured in αMEM (manufactured by Invitrogen) containing 10% by weight of fetal bovine serum, at 37° C. under 5% by volume of CO2 to overexpress Bcl-2. Similarly, HeLa cells were stably transfected with pCAGGS-hBcl-2. The resulting cells were then cultured in DMEM (manufactured by Invitrogen) containing 10% by weight of fetal bovine serum, at 37° C. under 5% by volume of CO2 for 48 hours to overexpress Bcl-2. Here, SK-N-SH cells and HeLa cells were stably transfected with trade name: pCAGGS (Hitoshi Niwa et al., Gene, 108, 193-200 (1991), all teachings of which are incorporated herein by reference) as controls, in the same manner as described above, respectively.
(§3) In addition, each of the transfectants was treated with tunicamycin (1 μg/ml) for 30 hours, stained with Hoechst33342, and observed by fluorescence microscopy.

Assay [5] concerns SK-N-SH cell. The experiment in a line: Nuclear morphological changes (Hoechst33342) after tunicamycin in vector-transfected SK-N-SH cells. The following applies: tunicamycin 1 μg/ml for 30 hours. The method, then: as §2, §3

On to `COc1cc([C@@H]2c3cc4c(cc3[C@@H](O[C@@H]3O[C@@H]5CO[C@@H](C)O[C@H]5[C@H](O)[C@H]3O)[C@H]3COC(=O)[C@H]23)OCO4)cc(OC)c1O` [etoposide], for which the “cleavage of pro-caspase-4” value in assay [1] is on record as “not cleaved”.

For `CN[C@@H]1C[C@H]2O[C@@](C)([C@@H]1OC)n1c3ccccc3c3c4c(c5c6ccccc6n2c5c31)C(=O)NC4` [staurosporine], the “cleavage of pro-caspase-4” value in assay [1] is “not cleaved”.

Take `C/C=C(/C)C(=O)O[C@H]1C(C)=C2[C@H]([C@@H]1OC(=O)CCCCCCC)[C@@](C)(OC(C)=O)C[C@H](OC(=O)CCC)[C@@]1(O)[C@H]2OC(=O)[C@@]1(C)O` [thapsigargin]: the “cleavage of pro-caspase-4” value in assay [1] is “induced the cleavage of pro-caspase-4”. Moreover, the “cells resulting in death” value in assay [2] is “about 60%”.

Aβ1-40: amyloid-β peptide 1-40: in assay [3], the “cleavage of caspase-4” value is “cleavage of caspase-4 was observed”.

As for “Aβ25-35: partial peptide of amyloid-β (GSNKGAIIGLM; Amyloid-beta protein 40; UniProt P05067 696-706, looked up, fragment)”, the “cleavage of caspase-4” value in assay [3] is given as “cleavage of caspase-4 was observed”.

On to tunicamycin, for which the “cleavage of pro-caspase-4” value in assay [1] is recorded as “induced the cleavage of pro-caspase-4”. Also, the “apoptotic nuclear morphological changes” value in assay [4] and in assay [5] was “apoptotic nuclear morphological changes were induced” each time.
